In US12281098B2, “Five-membered-fused six-membered compound, preparation method, pharmaceutical composition and use” (HANGZHOU POLYMED BIOPHARMACEUTICALS, INC., priority 2021, dated 2025):

Tests used:
IRAK4 kinase = biological target: T1, IRAK4 kinase (Homo sapiens, UniProt Q9NWZ3); test: Compound inhibition of IRAK4 kinase activity (fluorescence microfluidic mobility shift assay); assay type: biochemical; details: 10 μM ATP, 6 nM IRAK4 kinase
T1 construct: purchased Carna 09-145
T1 sequence (Q9NWZ3 1-460): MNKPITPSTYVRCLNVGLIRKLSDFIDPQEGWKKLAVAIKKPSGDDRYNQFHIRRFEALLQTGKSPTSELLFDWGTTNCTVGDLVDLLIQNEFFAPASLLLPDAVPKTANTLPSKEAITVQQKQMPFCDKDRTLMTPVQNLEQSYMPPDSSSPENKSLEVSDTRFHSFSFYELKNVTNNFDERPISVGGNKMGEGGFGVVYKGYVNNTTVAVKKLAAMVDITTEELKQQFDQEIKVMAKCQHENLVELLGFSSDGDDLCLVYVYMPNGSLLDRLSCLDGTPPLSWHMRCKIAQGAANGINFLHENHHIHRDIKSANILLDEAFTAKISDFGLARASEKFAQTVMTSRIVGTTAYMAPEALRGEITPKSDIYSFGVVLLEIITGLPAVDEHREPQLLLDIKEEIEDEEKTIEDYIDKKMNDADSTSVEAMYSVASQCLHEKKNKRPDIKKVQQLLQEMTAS
Description: Based on the experimental method of fluorescence microfluidic mobility shift assay, the IC50 value of the compound for competitive binding of ATP to IRAK4 kinase was determined. The initial detection concentration of the compound was 10 μM, which was 4-fold serially diluted to 0.38 nM and assayed in duplicate. In this case, commercially available staurosporine was the standard control for the assay.
1) IRAK4 kinase was dissolved in kinase buffer (50 mM HEPES pH 7.5, 10 mM MgCl2, 2 mM DDT, and 0.01% Brij-35) at a final concentration of 6 nM.
2) The substrate peptide FAM-P8 and ATP were dissolved in the above kinase buffer, and the final concentrations of the substrate peptide FAM-P8 and ATP for IRAK4 were 3 μM and 10 μM, respectively.
3) Compound dilution: The compound was first diluted to 50 μM, and then 4-fold serially diluted with DMSO. In this case, the solution without compound and kinase served as the blank control, corresponding to the “minimum value” shown below; the solution without compound but containing kinase, adenosine 5′-triphosphate disodium salt hydrate, DMSO, and the buffer served as the positive control, corresponding to the “maximum value” shown below.
4) Kinase reaction and termination: 10 μL of the kinase buffer was added to a 384-well plate containing 5 μL of the compound to be tested, and the mixture was incubated at room temperature for 10 minutes; another 10 μL of buffer containing the substrate peptide and adenosine 5′-triphosphate disodium salt hydrate was added to the 384-well plate, and after incubation at 28° C. for 1 hour, 25 μL of termination solution (100 mM HEPES pH 7.5, 50 mM EDTA, 0.2% Coating Reagent #3, and 0.015% Brij-35) was added to each well to terminate the reaction.
5) Data reading: CaliperEZ Reader II instrument was used to read the conversion rate data. Setting conditions: downstream voltage as −500 V, upstream voltage as −2250 V, base pressure as −0.5 PSI, and screening pressure as −1.2 PSI.
6) Data calculation: the conversion rate data was copied from CaliperEZ Reader II, and the conversion rate was converted into inhibition rate data. The calculation formula is as follows: Inhibition percentage (%)=(maximum value−conversion rate)/(maximum value−minimum value)*100%
IC50 values were fitted with XLFit excel add-in version 5.4.0.8.

THP-1 cells = test: LPS-stimulated cytokine (TNFα) release in THP-1; assay type: cell-based, Human; details: Homo sapiens, THP-1; Table 4; LPS 100 ng/mL, 5 hours, TNF-α ELISA; read-out: Inhibition IC50 (nM) of cytokines (TNFα) against LPS-stimulated inflammatory responses in THP-1 cells
Description: THP-1 cells were cultured in suspension in RPMI 1640 complete medium (containing 10% serum, 1% penicillin-streptomycin, and 55 μM β-mercaptoethanol). THP-1 cells were collected, centrifuged at 350×g at room temperature to discard the supernatant, and resuspended in RPMI 1640 complete medium to a concentration of 2×10^6 cells per mL. THP-1 cells were spread into a 96-well plate at a concentration of 2×10^5 cells per well, and different concentrations of the compound to be tested were added thereto. The plate was incubated in a 37° C. cell culture incubator with 5% CO2 for 60 minutes. 50 μL of LPS at a final concentration of 100 ng/mL was added to a 96-well plate, and incubated in a 37° C. cell culture incubator for 5 hours. The cell culture plate was then taken out from the incubator, and centrifuged at 350×g at low temperature for 5 minutes to collect 150 μL of the supernatant. Referring to the instructions in the Human TNF-α Duoset ELISA Kit, the level of TNF-α in the cell culture supernatant was detected.
Data on the inhibitory activity of cytokines (TNFα) against LPS-stimulated inflammatory responses in THP-1 cells are shown in Tables 3 and 4.

[1] = biological target: T2, IRAK4 protein in THP-1 cells (Homo sapiens, UniProt Q9NWZ3); test: IRAK4 protein degradation in THP-1 induced by PROTAC (Western Blot); assay type: cell-based; details: Table 6, estimated bins, GAPDH internal reference
T2 construct: endogenous in cells; host or cells: THP-1
T2 sequence (Q9NWZ3 1-460): T1 sequence (Q9NWZ3 1-460)
Description: 3.1. Based on the experimental method of immunoblot, i.e., Western Blot, THP-1 cell samples processed by gel electrophoresis were stained with specific antibodies, and the degradation activity of the compounds on the IRAK4 protein in THP-1 cells was determined by analyzing the position of the staining and the depth of the staining. The detection concentrations of the compounds were 0 μM, 0.3 μM, 1 μM, and 3 μM, and the compounds were used to treat the cells for 8 hours, 16 hours, 24 hours, and 48 hours. In this case, glyceraldehyde-3-phosphate dehydrogenase (GAPDH) was the internal reference protein for the assay.
THP-1 cells were spread into a 6-well plate at a density of 1.5×10^6 cells per mL, and incubated in a 37° C. cell culture incubator with 5% CO2 for 2 hours. The compound was diluted with DMSO to 0.6 mM, 0.2 mM, and 0.06 mM, respectively. 10 μL of compound solution was added to the corresponding wells, and the plate was incubated in the incubator for 16 hours, 24 hours, and 48 hours, respectively. The drug-treated THP-1 cells were collected from the wells, added with 120 μL of RIPA lysis buffer containing protease inhibitor, phosphatase inhibitor cocktail 2, and phosphatase inhibitor cocktail 3, and lysed on wet ice for 30 minutes. The cell lysate was then centrifuged at low temperature and high speed for 5 minutes, and the supernatant was collected. Referring to the instructions in the Pierce™ BCA Protein Assay Kit, the cell samples were tested for protein concentration.
The samples were adjusted to the same concentration using lysis buffer and NuPAGE® LDS sample buffer containing 1 M DTT. The samples were heated at 95° C. for 5 minutes and centrifuged at low temperature and high speed. 20 μL of prepared protein sample and 4 μL of PageRuler Prestained Protein Ladder were added to the gel wells. The mixture was electrophoresed at a voltage of 80 V for 0.5 hours, and then electrophoresed for another 1.5 hours after the voltage was adjusted to 120 V. The gel was removed and proteins in the gel were transferred to IBlot™ 2 Transfer Stack at a voltage of 20V. After successful membrane transfer, the bands were cut out at 65 kDa to 40 kDa and 40 kDa to 30 kDa, respectively. The membrane was blocked with 5% non-fat milk at room temperature for 1 hour. The membrane was washed three times with 1×TBST, and incubated with IRAK4 antibody working solution at 4° C. overnight. The IRAK4 antibody working solution was discarded, and the membrane was washed three times with 1×TBST. After the corresponding membrane was incubated with Goat Anti-Rabbit IgG H&L (HRP) working solution and Goat Anti-Mouse IgG H&L (HRP) working solution at room temperature for 1 hour, the antibody working solutions were discarded, and the membrane was washed three times with 1×TBST. Referring to the instructions in the SuperSignal™ West Femto Maximum Sensitivity Substrate Kit, the reagents in the kit were mixed in equal volume proportions to prepare a luminescent mixture, and the membrane was incubated for 1 minute and removed for exposure.
WB assay: The results 24 hours after administration at 1 μM were divided into estimated <25%, <50%, <75%, and <100%.

Compound	IC50 (IRAK4 kinase; Table 2) [nM]	IC50 (THP-1 cells) [nM]	Western Blot results 24 hours after administration at a drug concentration of 1 μM [1] [%]	IC50 (IRAK4 kinase; Table 1) [nM]
COc1cc2nn(CCN3CCN(CC(=O)N4CCC5(CC4)CCN(c4ncc(Nc6cccc7c6C(=O)N(C6CCC(=O)NC6=O)C7=O)cn4)CC5)CC3)cc2cc1NC(=O)c1cccc(C(F)(F)F)n1 (stereo not drawn) [III-30]	< 100	1000 to 10000	–	–
COc1cc2nn(CCN3CCN(c4cccc5c4C(=O)N(C4CCC(=O)NC4=O)C5=O)CC3)cc2cc1NC(=O)c1cccc(C(F)(F)F)n1 (stereo not drawn) [III-39]	< 100	–	<25	–
CC(C)(O)c1cc2nn(CCN3CCN(CC(=O)N4CCC5(CC4)CCN(c4cccc6c4C(=O)N(C4CCC(=O)NC4=O)C6=O)CC5)C3=O)cc2cc1NC(=O)c1cccc(C(F)(F)F)n1 (stereo not drawn) [III-11]	100 to 1000	1000 to 10000	–	100 to 1000
COc1cc2c(cc1NC(=O)c1cccc(C(F)(F)F)n1)CN(CCC(C)(C)C(=O)NC1CCN(c3cccc4c3C(=O)N(C3CCC(=O)NC3=O)C4=O)CC1)C2=O (stereo not drawn) [III-41]	< 100	–	<25	–
COc1cc2nn(CCN3CCN(c4ccc(OCC#Cc5cccc6c5C(=O)N(C5CCC(=O)NC5=O)C6=O)cc4)CC3)cc2cc1NC(=O)c1cccc(C(F)(F)F)n1 (stereo not drawn) [III-69]	100 to 1000	–	<25	–
COc1cc2nn(CCN3CCN(CC(=O)N4CCC5(CCC(C(=O)N[C@H](C(=O)N6C[C@H](O)C[C@H]6C(=O)N[C@@H](C)c6ccc(-c7scnc7C)cc6)C(C)(C)C)CC5)CC4)CC3)cc2cc1NC(=O)c1cccc(C(F)(F)F)n1 [III-29]	< 100	1000 to 10000	–	< 100
CC(C)(O)c1cc2nn(CCN3CCN(CC(=O)N4CC5(C4)CN(c4cccc6c4C(=O)N(C4CCC(=O)NC4=O)C6=O)C5)CC3)cc2cc1NC(=O)c1cccc(C(F)(F)F)n1 (stereo not drawn) [III-63]	< 100	–	<25	–
COc1cc2nn(CCN3CCN(CC(=O)N4CCC5(CCC(Oc6cccc7c6C(=O)N(C6CCC(=O)NC6=O)C7=O)CC5)CC4)CC3)cc2cc1NC(=O)c1cccc(C(F)(F)F)n1 (stereo not drawn) [III-56]	< 100	–	<25	–
